Measured values published in paper PMC3129366 (Chemico-biological interactions, 2011).

Columns and labels:
[1] = target: T1, CYP2E1 (Rattus norvegicus, UniProt P05182, species not given); assay: Inhibition of chlorzoxazone 6-hydroxylation in CYP2E1 liver microsomes; conditions: human, microsomes, chlorzoxazone metabolism
[2] = target: T1, CYP2E1; assay: in vitro; conditions: human, microsomes
[3] = target: Rabbit CYP2E1 (Oryctolagus cuniculus, UniProt P08682); assay: Inhibition of p-nitrophenol hydroxylation by purified rabbit CYP2E1; assay type: biochemical
[4] = target: CYP2E1 (Rattus norvegicus, UniProt P05182); assay: Inhibition of chlorzoxazone 6-hydroxylation in CYP2E1 liver microsomes; conditions: chlorzoxazone metabolism; for pKi: Log (1/Ki)
[5] = Ki, substituted pyrazoles, purified rabbit CYP2E1, p-nitrophenol as substrate
[6] = pH 7.4, pKi±stdev, Table 3 test set

Rabbit CYP2E1, sequence (P08682 whole entry): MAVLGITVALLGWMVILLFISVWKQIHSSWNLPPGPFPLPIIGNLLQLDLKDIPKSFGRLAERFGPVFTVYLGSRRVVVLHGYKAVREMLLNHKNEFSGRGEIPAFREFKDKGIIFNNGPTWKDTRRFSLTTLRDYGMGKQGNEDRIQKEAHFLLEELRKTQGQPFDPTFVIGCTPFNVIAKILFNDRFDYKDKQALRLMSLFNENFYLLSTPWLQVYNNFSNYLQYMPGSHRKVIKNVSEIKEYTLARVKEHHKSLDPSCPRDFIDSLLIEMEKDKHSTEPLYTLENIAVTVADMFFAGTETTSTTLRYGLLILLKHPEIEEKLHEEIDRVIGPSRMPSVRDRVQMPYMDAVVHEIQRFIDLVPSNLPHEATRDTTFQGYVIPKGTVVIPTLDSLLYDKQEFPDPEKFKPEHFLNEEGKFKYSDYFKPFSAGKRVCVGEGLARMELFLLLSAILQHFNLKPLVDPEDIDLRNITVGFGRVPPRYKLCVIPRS
T1 sequence (P05182 2-493): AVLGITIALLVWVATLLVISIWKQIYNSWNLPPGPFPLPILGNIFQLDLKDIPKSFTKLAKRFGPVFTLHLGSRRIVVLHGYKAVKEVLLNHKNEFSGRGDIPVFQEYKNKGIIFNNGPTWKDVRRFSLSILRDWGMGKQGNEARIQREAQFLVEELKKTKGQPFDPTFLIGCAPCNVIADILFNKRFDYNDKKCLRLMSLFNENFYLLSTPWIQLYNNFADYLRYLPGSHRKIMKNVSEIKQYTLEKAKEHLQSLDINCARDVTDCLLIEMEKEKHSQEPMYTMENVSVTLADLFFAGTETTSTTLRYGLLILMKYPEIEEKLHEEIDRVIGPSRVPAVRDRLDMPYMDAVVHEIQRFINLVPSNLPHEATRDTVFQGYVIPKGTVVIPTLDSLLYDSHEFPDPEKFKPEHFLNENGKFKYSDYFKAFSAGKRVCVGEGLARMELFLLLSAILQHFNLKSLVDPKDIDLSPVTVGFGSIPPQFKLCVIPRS
CYP2E1 (Rattus norvegicus, UniProt P05182), sequence (P05182 2-493): as above

O=C(n1ccnc1)C(F)(F)F [1-(trifluoroacetyl)-imidazole]
Ki at 10 min ([1]; pH 7.4, pKi, Log (1/Ki)): 251 µM

Cn1ccnc1 [1-methylimidazole]
Ki at 10 min ([1]; pH 7.4, pKi, Log (1/Ki)): 6.31 µM

Cc1cccc(C)n1 [2,6-lutidine]
Ki at 10 min ([1]; pH 7.4, pKi, Log (1/Ki)): 398 µM

Oc1ccc2ccccc2n1 [2-hydroxyquinoline]
Ki at 10 min ([2]; pH 7.4, Ki): 931 µM
Ki at 10 min ([2]; pH 7.4, pKi): 1000 µM
Ki at 10 min ([2]; pH 7.4, pKi±stdev): 1000 µM

Cc1cc[nH]n1 [3-methylpyrazole]
Ki [3, 5]: 5.4 µM

Cc1cnc2ccccc2c1 [3-methylquinoline]
Ki at 10 min ([1]; pH 7.4, pKi, Log (1/Ki)): 100 µM

CCCOc1cn[nH]c1 [4-O-propylpyrazole]
pKi ([3]; Log (1/Ki), substituted pyrazoles, purified rabbit CYP2E1, p-nitrophenol): 6.1
Ki ([3]; substituted pyrazoles, purified rabbit CYP2E1, p-nitrophenol as substrate): 0.79 µM

CC(=O)Nc1cn[nH]c1 [4-acetylaminopyrazole]
Ki [3, 5]: 5750 µM

Cc1n[nH]cc1Br [4-bromo-3-methylpyrazole]
Ki [3, 5]: 3 µM

OCc1c[nH]cn1 [4-hydroxymethylimidazole]
Ki at 10 min ([1]; pH 7.4, pKi, Log (1/Ki)): 501 µM

Oc1ccnc2ccccc12 [4-hydroxyquinoline]
Ki at 10 min ([2]; pH 7.4, Ki): 592 µM
Ki at 10 min ([2]; pH 7.4, pKi): 631 µM

Ic1cn[nH]c1 [4-iodopyrazole]
Ki [3, 5]: 1 µM

O=[N+]([O-])c1c[nH]cn1 [4-nitroimidazole]
Ki at 10 min ([1]; pH 7.4, pKi, Log (1/Ki)): 12.6 µM
Ki at 10 min [1, 6]: 12.6 µM

O=[N+]([O-])c1cn[nH]c1 [4-nitropyrazole]
Ki [3, 5]: 21 µM

CCCCCc1cn[nH]c1 [4-pentylpyrazole]
Ki [3, 5]: 0.06 µM

CCCc1cn[nH]c1 [4-propylpyrazole]
Ki [3, 5]: 0.16 µM
Ki ([3]; pKi±stdev, Table 3 test set, substituted pyrazole, purified rabbit CYP2E1, p-nitrophenol): 0.158 µM

Oc1ccc2ncccc2c1 [6-hydroxyquinoline]
Ki at 10 min ([2]; pH 7.4, Ki): 218 µM
Ki at 10 min ([2]; pH 7.4, pKi): 200 µM

Oc1cccc2cccnc12 [8-hydroxyquinoline]
Ki at 10 min ([1]; pH 7.4, pKi, Log (1/Ki)): 79.4 µM

CCCCn1ccnc1 [N-(n-butyl)imidazole]
pKi [4]: 6.2

COC(=O)c1ccncc1 [methyl isonicotinate]
pKi [4]: 5.6
pKi±stdev ([4]; Table 3 test set): 5.6±0.1

COC(=O)c1cccnc1 [methyl nicotinate]
Ki at 10 min ([1]; pH 7.4, pKi, Log (1/Ki)): 20 µM

c1cn[nH]c1 [pyrazole]
pKi [4]: 4.4

c1ccncc1 [pyridine]
Ki at 10 min ([1]; pH 7.4, pKi, Log (1/Ki)): 12.6 µM

c1ccc2ncccc2c1 [quinoline]
Ki at 10 min ([1]; pH 7.4, pKi, Log (1/Ki)): 63.1 µM
Ki at 10 min [1, 6]: 63.1 µM
